Measurements from patent US20160213714A1, “INDUCTION OF CELLULAR SENESCENCE FOR TISSUE THERAPIES” (Everon Biosciences, Inc., priority 2015, published 2016).

Assays:
A549 cancer cells = test: Senescence induction (SA-β-Gal activity, morphology) of bleomycin-treated cells; type: cell-based; settings: 50 ug/ml for 72 hours; stained 7 days post-treatment
Procedure: (§1) FIG. 1: Senescence-associated beta-galactosidase (SA-β-Gal) activity of bleomycin-treated cells. A549 cancer cells (panel A) and primary human WI-38 fibroblasts (panel B) were treated for 72 hours with 50 ug/ml or 15 ug/ml of bleomycin, respectively. Cells were fixed and stained 7 days post-bleomycin treatment. Non-treated cultures, confluent at the time of staining, were used as controls.

[1] = tested on: primary human WI-38 fibroblasts; test: as above; type: cell-based; settings: 15 ug/ml for 72 hours; stained 7 days post-treatment
Procedure: as §1

bleomycin was tested, and the cellular morphology (A549 cancer cells) was “Enlarged cellular morphology” and the cellular morphology [1] was “Enlarged cellular morphology”.
